Data as given in US9433663B2, “Mobilization of hematopoietic stem cells” (Children's Hospital Medical Center, priority 2008, dated 2016).

Experiments:
[1] = test system: C57Bl/6, C3H/HeJ and DBA/2 mice; test: Example 7 HPC mobilization in comparison and combination with G-CSF; conditions: mouse, in vivo
Experimental: Broad interindividual variability exists in mobilization of HSC/Ps in different strains of mice and man. In some patients, G-CSF is a poor mobilizer. Therefore, the mobilizing capability of CASIN in comparison with G-CSF is evaluated, and in combination with G-CSF, in strains of mice that were reported to differ in responsiveness to G-CSF. Besides C57Bl/6, included in this set of experiments are C3H/HeJ and DBA/2 mice which respond very well to the mobilizing effects of G-CSF compared with C57Bl/6 mice. For each strain of mice, four groups are divided according to regimens used for mobilization: (1) Control medium; (2) CASIN administration; (3)G-CSF: twice a day for 2 days (4) G-CSF plus CASIN administration. Mice are bled 18 h after the last injection, and blood is plated in triplicate for CFU-C assay. Numbers of HPCs in CFU-E, BFU-E, CFU-GM, and CFU-GEMM are calculated per ml of blood later on reflecting the mobilization capacity of different regimens on HPCs.

[2] = test system: other Rho GTPases and Ras; test: Example 7 effector pull-down in LDBM and HCB cells, other Rho GTPases and Ras; assay type: cell-based, murine LDBM and human HCB cells
Experimental: To exclude the inhibitory effect of CASIN on other Rac isoforms, Rho GTPases, and Ras, broader effector pull-down experiments are performed on these possible candidates with gradient doses of CASIN in LDBM and HCB cells as previously described. In addition, CASIN has been indicated as a noncovalent and reversible inhibitor in Xenopus egg extract. To confirm it, reversibility is monitored in this set of effector pull-down experiments. Four treatment groups are divided for both LDBM and HCB cells: (1) Serum starvation 20 h; (2) Serum starvation 20 h+growth factors stimulation; (3) Serum starvation 20 h+CASIN treatment (doses: 1, 2.5, 5, and 10 μM) 3 h+growth factor stimulation; (4) Serum starvation 20 h+CASIN treatment (doses: 1, 2.5, 5, and 10 μM) 3 h+wash the cells, and culture for another 3 h for recovery+growth factors stimulation. […] Bound proteins are analyzed by immunoblotting with respective antibodies (BD Biosciences). Furthermore, changes of downstream targets of Cdc42, Rac, and Rho under the four treatment groups are assessed. Phosphorylation status of PAK1, WASP (effectors of Cdc42), WAVE (effector of Rac), and ROCK (effector of Rho) are monitored by western blots using respective antibodies.

[3] = test system: primitive human hematopoietic cells (CD45+CD34+CD38−); test: Example 7 mobilization of human HSC/Ps in NOD-SCID model; assay type: in vivo, NOD-SCID mice transplanted with CD34+ HCB cells; conditions: flow cytometry
Text: The mobilization effects of CASIN on human HSC/Ps using an established preclinical in vivo mouse model are examined. […] This reconstituting population of human hematopoietic cells is operationally defined as SCID-repopulating cells (SRCs), and accordingly represents candidate human HSCs.
Primitive CD34+ human neonatal umbilical cord blood cells are transplanted into sublethally irradiated recipients. Around 10-week posttransplantation, human multilineage repopulating capacity of transplanted HSCs is examined using flow cytometry for surface markers representing human lymphoid (CD19, CD20), myeloid (CD15, CD33) and primitive (CD34, CD38) hematopoietic subsets. […] To further characterize the effect of CASIN on mobilization of primitive human HSC mobilization, progenitor potential is determined using functional clonogenic assays of hematopoietic colony-forming units (CFUs) derived from HPCs33. Numbers of CFUs are counted posinjection of CASIN treatment, in comparison with control medium and G-CSF administration.

[4] = test system: PIP2 induced F-actin assembly; conditions: PIP2 induced F-actin assembly in xenopus egg extracts; read-out: IC50 (dose required to inhibit the maximum polymerization rate by 50%); cited from earlier work
[5] = molecular target: Rac (Homo sapiens, UniProt P63000); test: nucleotide exchange: Tiam-induced exchange of mant-GDP with Rac; assay type: biochemical
Text: For example, even at 10 times the IC50 of Cdc42, a 50% inhibition of the association of mant-GDP with Rac or Rho was not achieved.

[6] = test system: LT-HSC; test: serial transplantation of CASIN-mobilized PB into NOD/SCID mice; assay type: in vivo
Experimental: Whether CASIN administration can induce mobilization of HSC/Ps to peripheral blood of C57Bl/6 mice, mimicking the phenotype observed in Cdc42 conditional knockout mice, was evaluated. First of all, mobilization of hematopoietic progenitor cells was examined by CFU-C assays functionally (FIG. 3a). […] Secondarily, to further explore the ability of CASIN to mobilize LT-HSC which is crucial for long-term repopulation of the mobilized cells, serial transplantations were carried out, where 20 million PB from CASIN-mobilized C57Bl/6 mice was transplanted into primary recipient of NOD/SCID mice, and subsequent secondary and tertiary transplants were finished as well using prior BMs (FIG. 3c). Donor chimerisms were assessed by using H2K^b congenic marker which is positive for donors of C57Bl/6 strain and negative for recipients of NOD/SCID strain. […] Therefore, the studies show CASIN can efficiently mobilize colony-forming hematopoietic progenitors and LT-HSCs with self-renewal and multi-lineage differentiation capacity. Thirdly, to further investigate the potential of CASIN to vacate the BM niche after mobilization, six-color staining of the BM cells was performed from C57Bl/6 mice with or without CASIN treatment followed by FACS analysis. […] Therefore, a transient decrease in BM and a concomitant increase in peripheral organs of HSCs would be beneficial to facilitating the subsequent HSC transplantation.
To functionally define the LT-HSC, serial transplantations of mobilized PB from C57Bl/6 mice into sublethally irradiated NOD/SCID mice were carried out. Briefly, 2×10^7 PB cells were harvested 40 hrs after CASIN mobilization, and subsequently transplanted to a sublethally irradiated primary recipient. Chimerisms of donor-derived cells in the BM and PB were monitored over time by FACS analysis of the congenic marker H2K^b. Subsequent secondary and tertiary transplantations were performed using prior BM cells, and monitored by FACS analysis as well.

With `OCCNC1CCCc2c1[nH]c1ccc(-c3ccccc3)cc21` (stereo not drawn) [CASIN] the “mobilization in comparison and in combination with G-CSF” value [1] was “more effective mobilization than G-CSF”, the “activities of other Rho GTPases and Ras” value [2] was “without affecting” and the “frequency and total number of primitive human hematopoietic cells (CD45+CD34+CD38−) in peripheral blood” value [3] was “increases significantly”. For the same compound, the IC50 [4] was 2 µM, the “Tiam induced nucleotide exchange of mant-GDP with Rac” value ([5]; FIG. 6) was “did not affect” and the “inhibition of the association of mant-GDP with Rac” value ([5]; at 10 times the IC50 of Cdc42) was < 50%. For the same compound, the “PB reconstitution of donor-derived cells in the primary recipient” value ([6]; 1-3 mo post transplantation of PB from CASIN-mobilized mice) was “reconstituted considerable percentages of total PB”, the “multi-lineage differentiation of engrafted donor cells” value ([6]; BM and PB of the primary recipients) was “had undergone multi-lineage differentiations” and the “engraftment of donor-derived cells in BM” value ([6]; primary through tertiary transplantation) was “engraftment of donor-derived cells was detected”.
